What is called Ki is the equilibrium dissociation constant of an inhibitor or competing ligand from its target.

Results on 27 compounds are retold here after patent US10053417B2, “Neprilysin inhibitors” (THERAVANCE BIOPHARMA R&D IP, LLC, priority 2013, dated 2018).

Bounds are passed on as bounds.

The target of this test is T1, human NEP (Homo sapiens, UniProt P08473).
T1 construct: purchased R&D Systems, Minneapolis, Minn; 1182-ZN
T1 sequence (P08473 52-750 limits assumed): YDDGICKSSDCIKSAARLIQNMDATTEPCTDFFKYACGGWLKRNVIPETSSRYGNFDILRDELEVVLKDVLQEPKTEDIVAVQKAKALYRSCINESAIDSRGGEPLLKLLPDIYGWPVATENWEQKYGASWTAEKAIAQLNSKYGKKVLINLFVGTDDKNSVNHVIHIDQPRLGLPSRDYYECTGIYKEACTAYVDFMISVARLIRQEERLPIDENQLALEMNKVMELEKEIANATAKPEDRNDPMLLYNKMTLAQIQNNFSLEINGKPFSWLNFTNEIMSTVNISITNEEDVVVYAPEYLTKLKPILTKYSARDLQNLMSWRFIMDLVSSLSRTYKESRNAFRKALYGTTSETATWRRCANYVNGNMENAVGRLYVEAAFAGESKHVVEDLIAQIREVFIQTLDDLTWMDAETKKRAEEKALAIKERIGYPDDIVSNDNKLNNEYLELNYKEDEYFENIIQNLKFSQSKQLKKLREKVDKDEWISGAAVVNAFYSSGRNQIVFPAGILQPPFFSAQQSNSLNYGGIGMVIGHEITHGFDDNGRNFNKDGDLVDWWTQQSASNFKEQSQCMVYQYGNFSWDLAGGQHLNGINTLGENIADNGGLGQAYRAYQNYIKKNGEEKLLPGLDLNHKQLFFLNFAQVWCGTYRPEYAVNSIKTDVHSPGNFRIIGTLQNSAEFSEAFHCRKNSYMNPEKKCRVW
In words: In vitro enzyme inhibition assay, inhibitor potency at human NEP (Assay 1). In kind it is biochemical. The settings on record: recombinant human NEP; fluorogenic peptide substrate 10 μM; 37° C.; values given as ranges. The method, then:
The inhibitory activities of compounds at human and rat neprilysin (EC 3.4.24.11; NEP) and human angiotensin converting enzyme (ACE) were determined using in vitro assays as described below.
Recombinant human NEP and recombinant human ACE were obtained commercially (R&D Systems, Minneapolis, Minn., catalog numbers 1182-ZN and 929-ZN, respectively). The fluorogenic peptide substrate Mca-D-Arg-Arg-Leu-Dap-(Dnp)-OH (Medeiros et al. (1997) Braz. J. Med. Biol. Res. 30:1157-62; Anaspec, San Jose, Calif.) and Abz-Phe-Arg-Lys(Dnp)-Pro-OH (Araujo et al. (2000) Biochemistry 39:8519-8525; Bachem, Torrance, Calif.) were used in the NEP and ACE assays respectively.
The assays were performed in 384-well white opaque plates at 37° C. using the fluorogenic peptide substrates at a concentration of 10 μM in Assay Buffer (NEP: 50 mM HEPES, pH 7.5, 100 mM NaCl, 0.01% polyethylene glycol sorbitan monolaurate (Tween-20), 10 μM ZnSO4; ACE: 50 mM HEPES, pH 7.5, 100 mM NaCl, 0.01% Tween-20, 1 μM ZnSO4).
Test compounds were assayed over the range of concentrations from […] to 20 μM. Test compounds were added to the enzymes and incubated for 30 minute at 37° C. prior to initiating the reaction by the addition of substrate. Reactions were terminated after 20 minutes of incubation at 37° C. by the addition of glacial acetic acid to a final concentration of 3.6% (v/v).
Plates were read on a fluorometer with excitation and emission wavelengths set to 320 nm and 405 nm, respectively. Inhibition constants were obtained by nonlinear regression of the data using the equation (GraphPad Software, Inc., San Diego, Calif.): ν=ν0/[1+(I/K′)] where ν is the reaction rate, ν0 is the uninhibited reaction rate, I is the inhibitor concentration and K′ is the apparent inhibition constant.
Compounds of the invention were tested in this assay and found to have pKi values at human NEP as follows.
Regarding `CCC(=O)C(=O)N[C@H](Cc1ccc(-c2cccc(Cl)c2)cc1)C[C@@H](O)C(=O)O` [Example 1, (2R,4R)-5-(3′-Chlorobiphenyl-4-yl)-2-hydroxy-4-(2-oxobutyrylamino)pentanoic Acid], the Ki is 0.001 to 0.01 µM.

Regarding `CC(C)CC(=O)C(=O)N[C@H](Cc1ccc(-c2cccc(Cl)c2)cc1)C[C@@H](O)C(=O)O` [Example 2-1, (2R,4R)-5-(3′-Chloro-biphenyl-4-yl)-2-hydroxy-4-(4-methyl-2-oxo-pentanoylamino)-pentanoic acid], the Ki was 0.001 to 0.01 µM.

In the case of `O=C(Cc1ccccc1)C(=O)N[C@H](Cc1ccc(-c2cccc(Cl)c2)cc1)C[C@@H](O)C(=O)O` [Example 2-2, (2R,4R)-5-(3′-Chloro-biphenyl-4-yl)-2-hydroxy-4-(2-oxo-3-phenyl-propionylamino)-pentanoic acid], the inhibition constant Ki was 0.001 to 0.01 µM.

In the case of `O=C(N[C@H](Cc1ccc(-c2cccc(Cl)c2)cc1)C[C@@H](O)C(=O)O)C(=O)N1CCC[C@H]1CO` [Example 3, (2R,4R)-5-(3′-Chlorobiphenyl-4-yl)-2-hydroxy-4-[2-((S)-2-hydroxymethylpyrrolidin-1-yl)-2-oxo-acetylamino]pentanoic Acid], the Ki was no more than 0.001 µM.

Take `O=C(NC1CCCC1)C(=O)N[C@H](Cc1ccc(-c2cccc(Cl)c2)cc1)C[C@@H](O)C(=O)O` [Example 4-1, (2R,4R)-5-(3′-Chlorobiphenyl-4-yl)-4-(cyclopentylaminooxalylamino)-2-hydroxypentanoic acid]: the Ki is 0.01 to 0.0316 µM.

`O=C(Nc1ccc(Br)nc1)C(=O)N[C@H](Cc1ccc(-c2cccc(Cl)c2)cc1)C[C@@H](O)C(=O)O` [Example 4-2, (2R,4R)-4-[(6-Bromopyridin-3-ylaminooxalyl)amino]-5-(3′-chlorobiphenyl-4-yl)-2-hydroxypentanoic acid]: the inhibitory constant (Ki) is 0.01 to 0.0316 µM.

Regarding `O=C(Nc1ccncc1)C(=O)N[C@H](Cc1ccc(-c2cccc(Cl)c2)cc1)C[C@@H](O)C(=O)O` [Example 4-3, (2R,4R)-5-(3′-Chlorobiphenyl-4-yl)-2-hydroxy-4-[(pyridin-4-ylaminooxalyl)-amino]-pentanoic acid], the Ki is 0.01 to 0.0316 µM.

Regarding `Cc1ccncc1NC(=O)C(=O)N[C@H](Cc1ccc(-c2cccc(Cl)c2)cc1)C[C@@H](O)C(=O)O` [Example 4-4, (2R,4R)-5-(3′-Chlorobiphenyl-4-yl)-2-hydroxy-4-[(4-methylpyridin-3-ylaminooxalyl)amino]pentanoic acid], the Ki is 0.001 to 0.01 µM.

With `O=C(NOCc1ccccc1)C(=O)N[C@H](Cc1ccc(-c2cccc(Cl)c2)cc1)C[C@@H](O)C(=O)O` [Example 4-5, (2R,4R)-4-(Benzyloxyaminooxalylamino)-5-(3′-chlorobiphenyl-4-yl)-2-hydroxy-pentanoic acid], the Ki is 0.01 to 0.0316 µM.

Consider `CONC(=O)C(=O)N[C@H](Cc1ccc(-c2cccc(Cl)c2)cc1)C[C@@H](O)C(=O)O` [Example 4-6, (2R,4R)-5-(3′-Chlorobiphenyl-4-yl)-2-hydroxy-4-(methoxyaminooxalylamino)-pentanoic acid], for which the Ki is 0.001 to 0.01 µM.

Regarding `O=C(NC1CONC1=O)C(=O)N[C@H](Cc1ccc(-c2cccc(Cl)c2)cc1)C[C@@H](O)C(=O)O` (stereo partly drawn) [Example 4-7, (2R,4R)-5-(3′-Chlorobiphenyl-4-yl)-2-hydroxy-4-[(3-oxo-isoxazolidin-4-ylaminooxalyl)-amino]pentanoic acid], the inhibition constant Ki is 0.001 to 0.01 µM.

Take `O=C(N[C@H](Cc1ccc(-c2cccc(Cl)c2)cc1)C[C@@H](O)C(=O)O)C(=O)NN1CCOCC1` [Example 4-8, (2R,4R)-5-(3′-Chlorobiphenyl-4-yl)-2-hydroxy-4-[(morpholin-4-ylaminooxalyl)-amino]pentanoic acid]: the Ki was 0.01 to 0.0316 µM.

For the compound `O=C(N[C@H](Cc1ccc(-c2cccc(Cl)c2)cc1)C[C@@H](O)C(=O)O)C(=O)N(O)c1ccccc1` [Example 4-9, (2R,4R)-5-(3′-Chlorobiphenyl-4-yl)-2-hydroxy-4-[(hydroxyphenylaminooxalyl)-amino]pentanoic acid], the pKi is listed as 8.0-9.0.

As for `CN(O)C(=O)C(=O)N[C@H](Cc1ccc(-c2cccc(Cl)c2)cc1)C[C@@H](O)C(=O)O` [Example 4-10, (2R,4R)-5-(3′-Chlorobiphenyl-4-yl)-2-hydroxy-4-[(hydroxymethylaminooxalyl)-amino]pentanoic acid], the pKi is 7.5-8.0.

In the case of `CN(C)C(=O)C(=O)N[C@H](Cc1ccc(-c2cccc(Cl)c2)cc1)C[C@@H](O)C(=O)O` [Example 4-11, (2R,4R)-5-(3′-Chlorobiphenyl-4-yl)-4-(dimethylaminooxalylamino)-2-hydroxy-pentanoic acid], the Ki is 0.01 to 0.0316 µM.

For `CON(C)C(=O)C(=O)N[C@H](Cc1ccc(-c2cccc(Cl)c2)cc1)C[C@@H](O)C(=O)O` [Example 4-12, (2R,4R)-5-(3′-Chlorobiphenyl-4-yl)-2-hydroxy-4-[(methoxymethylaminooxalyl)-amino]pentanoic acid], the Ki is 0.001 to 0.01 µM.

On to `O=C(N[C@H](Cc1ccc(-c2cccc(Cl)c2)cc1)C[C@@H](O)C(=O)O)C(=O)N1CC(O)C1` [Example 4-13, (2R,4R)-5-(3′-Chlorobiphenyl-4-yl)-2-hydroxy-4-[2-(3-hydroxyazetidin-1-yl)-2-oxo-acetylamino]pentanoic acid], for which the Ki is 0.001 to 0.01 µM.

In the case of `O=C(N[C@H](Cc1ccc(-c2cccc(Cl)c2)cc1)C[C@@H](O)C(=O)O)C(=O)N1CC(F)(F)C1` [Example 4-14, (2R,4R)-5-(3′-Chlorobiphenyl-4-yl)-4-[2-(3,3-difluoroazetidin-1-yl)-2-oxo-acetylamino]-2-hydroxypentanoic acid], the Ki was 0.01 to 0.0316 µM.

Take `CS(=O)(=O)C1CCN(C(=O)C(=O)N[C@H](Cc2ccc(-c3cccc(Cl)c3)cc2)C[C@@H](O)C(=O)O)C1` (stereo partly drawn) [Example 4-15, (2R,4R)-5-(3′-Chlorobiphenyl-4-yl)-2-hydroxy-4-[2-(3-methanesulfonyl-pyrrolidin-1-yl)-2-oxo-acetylamino]pentanoic acid]: the inhibitory constant (Ki) was 0.001 to 0.01 µM.

As for `O=C(N[C@H](Cc1ccc(-c2cccc(Cl)c2)cc1)C[C@@H](O)C(=O)O)C(=O)N1CCC[C@@H]1CO` [Example 4-16, (2R,4R)-5-(3′-Chlorobiphenyl-4-yl)-2-hydroxy-4-[2-((R)-2-hydroxymethyl-pyrrolidin-1-yl)-2-oxo-acetylamino]pentanoic acid], the Ki was 0.001 to 0.01 µM.

For the compound `NC(=O)C1CCN(C(=O)C(=O)N[C@H](Cc2ccc(-c3cccc(Cl)c3)cc2)C[C@@H](O)C(=O)O)C1` (stereo partly drawn) [Example 4-17, (2R,4R)-4-[2-(3-Carbamoylpyrrolidin-1-yl)-2-oxo-acetylamino]-5-(3′-chloro-biphenyl-4-yl)-2-hydroxypentanoic acid], the Ki was 0.01 to 0.0316 µM.

Turning to `O=C(N[C@H](Cc1ccc(-c2cccc(Cl)c2)cc1)C[C@@H](O)C(=O)O)C(=O)N1CCC(O)CC1` [Example 4-18, (2R,4R)-5-(3′-Chlorobiphenyl-4-yl)-2-hydroxy-4-[2-(4-hydroxy-piperidin-1-yl)-2-oxo-acetylamino]pentanoic acid], the Ki was no more than 0.001 µM.

With `COCC1CCN(C(=O)C(=O)N[C@H](Cc2ccc(-c3cccc(Cl)c3)cc2)C[C@@H](O)C(=O)O)CC1` [Example 4-19, (2R,4R)-5-(3′-Chlorobiphenyl-4-yl)-2-hydroxy-4-[2-(4-methoxymethyl-piperidin-1-yl)-2-oxo-acetylamino]pentanoic acid], the Ki was 0.01 to 0.0316 µM.

For `O=C(N[C@H](Cc1ccc(-c2cccc(Cl)c2)cc1)C[C@@H](O)C(=O)O)C(=O)N1CCC(CO)CC1` [Example 4-20, (2R,4R)-5-(3′-Chlorobiphenyl-4-yl)-2-hydroxy-4-[2-(4-hydroxymethyl-piperidin-1-yl)-2-oxo-acetylamino]pentanoic acid], the Ki is no more than 0.001 µM.

In the case of `O=C(N[C@H](Cc1ccc(-c2cccc(Cl)c2)cc1)C[C@@H](O)C(=O)O)C(=O)N1CCC[C@@H](O)C1` [Example 4-21, (2R,4R)-5-(3′-Chlorobiphenyl-4-yl)-2-hydroxy-4-[2-((R)-3-hydroxy-piperidin-1-yl)-2-oxo-acetylamino]pentanoic acid], the Ki is 0.001 to 0.01 µM.

Turning to `CC1(O)CCN(C(=O)C(=O)N[C@H](Cc2ccc(-c3cccc(Cl)c3)cc2)C[C@@H](O)C(=O)O)CC1` [Example 4-22, (2R,4R)-5-(3′-Chlorobiphenyl-4-yl)-2-hydroxy-4-[2-(4-hydroxy-4-methyl-piperidin-1-yl)-2-oxo-acetylamino]pentanoic acid], the Ki is 0.001 to 0.01 µM.

For the compound `O=C(N[C@H](Cc1ccc(-c2cccc(Cl)c2)cc1)C[C@@H](O)C(=O)O)C(=O)N1CCC(c2ccncc2)CC1` [Example 4-23, (2R,4R)-5-(3′-Chlorobiphenyl-4-yl)-2-hydroxy-4-[2-oxo-2-(3,4,5,6-tetrahydro-2H-[4,4′]bipyridinyl-1-yl)-acetylamino]pentanoic acid], the Ki was 0.01 to 0.0316 µM.
